Data reported in patent US20210163471A1, “PROGRANULIN MODULATORS AND METHODS OF USING THE SAME” (ARKUDA THERAPEUTICS, priority 2017, published 2021).
pEC50: −log10 of the molar value. Like-named read-outs stand apart in the source and are kept apart here.

System: BV-2 (mouse microglia) cells
Assay: progranulin secretion from BV-2 cells, mouse progranulin ELISA of conditioned media
Format: cell-based
Conditions: BV-2 cells, 16 hours incubation, 8-point curves starting at 10 μM
Protocol: BV-2 cells are split the day before plating into a 96 well plate format at approximately 80%. Cells should be plated the day before and allowed for 1 hour attachment period and for 16 hour incubation. […] Standard ELISA kits to measure PGRN are available from vendors such as Adipogen, R&D, and Biovendor.
Compound potency was determined by measuring progranulin secretion from BV-2 (mouse microglia) cells. BV-2 cells were grown in RPMI with 2 mM L-glutamine supplemented with 10% fetal bovine serum. On the day of the assay, cells were plated in 96-well plates at a density of 30,000 cells/well in RPMI (Roswell Park Memorial Institute media)/L-glutamine supplemented with 2% Fetal clone serum II (plating media) and left to adhere for 1 hour. Following attachment to the plate, media was replaced with treatment (8-point curves in half-log dilutions starting at 10 μM) in plating media and incubated for 16 hours. Secreted progranulin was measured from a 1:10 dilution of the conditioned media using the R&D Systems mouse progranulin ELISA kit (cat #DY2557) and following the manufacturer's instructions.

[1] = Mus musculus, BV-2, 16 h, assay run v1, read-out: PRGN v1 (EC50, progranulin secretion)
[2] = Mus musculus, BV-2, 16 h, assay run v2 (same protocol, different assay), read-out: PRGN v2 (EC50, progranulin secretion)
[3] = Mus musculus, assay run v1, read-out: PRGN v1 (EC50, progranulin secretion)
[4] = assay run v2 (same protocol, different assay), read-out: PRGN v2 (EC50, progranulin secretion)

| SMILES | pEC50 [1] | pEC50 [2] | further results |
| --- | --- | --- | --- |
| COc1ccc([C@@H]2c3ccccc3CCN2C(=O)C[C@@H]2CN3CCC2CC3)cc1F [Compound 1061] | < 5.00 | < 5.00 |  |
| O=C(C[C@@H]1CN2CCC1CC2)N1CCc2ccccc2[C@@H]1c1cccc(F)c1 [Compound 1062] | 5.96 | < 5.21 |  |
| O=C(C[C@@H]1CN2CCC1CC2)N1CCc2ccccc2[C@H]1c1cccc(F)c1 [Compound 1063] | < 5.00 | < 5.00 |  |
| O=C(C[C@@H]1CN2CCC1CC2)N1CCc2ccccc2[C@@H]1c1ccc(F)c(F)c1 [Compound 1064] | 5.57 | 5.74 |  |
| O=C(C[C@@H]1CN2CCC1CC2)N1CCc2ccccc2[C@H]1c1ccc(F)c(F)c1 [Compound 1065] | < 5.00 | < 5.00 |  |
| O=C1CCCN1c1ccc([C@H]2c3ccccc3CCN2C(=O)C[C@@H]2CN3CCC2CC3)cc1 [Compound 1066] | < 5.00 | < 5.00 |  |
| O=C1CCCN1c1ccc([C@@H]2c3ccccc3CCN2C(=O)C[C@@H]2CN3CCC2CC3)cc1 [Compound 1067] | < 5.00 | < 5.00 |  |
| O=C(C[C@@H]1CN2CCC1CC2)N1CCc2ccccc2[C@@H]1c1ccc(OC2CC2)cc1 [Compound 1068] | 5.21 | < 5.00 |  |
| O=C(C[C@@H]1CN2CCC1CC2)N1CCc2ccccc2[C@H]1c1ccc(OC2CC2)cc1 [Compound 1069] | < 5.00 | < 5.00 |  |
| O=C(N[C@@H]1CN2CCC1CC2)N1CCc2ccccc2[C@@H]1c1ccc(F)cc1 [Compound 1070] |  |  | pEC50 [3]: 6.74; pEC50 (Mus musculus, assay run v2 (same protocol, different assay), read-out: PRGN v2 (EC50, progranulin secretion)): 6.59 |
| O=C(N[C@@H]1CN2CCC1CC2)N1CCc2ccccc2[C@H]1c1ccc(F)cc1 [Compound 1071] |  |  | pEC50 [3]: 6.39 |
| CS(=O)(=O)c1ccc([C@H]2c3ccccc3CCN2C(=O)N[C@@H]2CN3CCC2CC3)cc1 [Compound 1072, (S)-1-(4-(methylsulfonyl)phenyl)-N—((S)-quinuclidin-3-yl)-3,4-dihydroisoquinoline-2(1H)-carboxamide] | < 5.36 |  |  |
| COc1ccc([C@H]2c3ccccc3CCN2C(=O)N[C@@H]2CN3CCC2CC3)cc1 [Compound 1073] | 5.30 |  |  |
| COc1ccc([C@@H]2c3ccccc3CCN2C(=O)N[C@@H]2CN3CCC2CC3)cc1 [Compound 1074] | < 5.00 |  |  |
| O=C(N[C@@H]1CN2CCC1CC2)N1CCc2ccccc2[C@@H]1c1ccc(F)c(F)c1 [Compound 1075] | 6.72 |  |  |
| O=C(N[C@@H]1CN2CCC1CC2)N1CCc2ccccc2[C@H]1c1ccc(F)c(F)c1 [Compound 1076] | < 5.00 |  |  |
| O=C(N[C@@H]1CN2CCC1CC2)N1CCc2ccccc2[C@@H]1c1ccncc1 [Compound 1077] | < 5.00 |  |  |
| O=C(N[C@@H]1CN2CCC1CC2)N1CCc2ccccc2[C@H]1c1ccncc1 [Compound 1078] | < 5.00 |  |  |
| O=C(N[C@@H]1CN2CCC1CC2)N1CCc2ccccc2[C@@H]1c1ccc2nccn2c1 [Compound 1079] | 5.43 |  |  |
| O=C(N[C@@H]1CN2CCC1CC2)N1CCc2ccccc2[C@H]1c1ccc2nccn2c1 [Compound 1080] | < 5.00 |  |  |
| O=C(N[C@@H]1CN2CCC1CC2)N1CCc2ccccc2[C@@H]1c1ccc(Cl)cc1 [Compound 1081] | 6.60 |  |  |

| SMILES | pEC50 [1] | pEC50 [2] | further results |
| --- | --- | --- | --- |
| O=C(N[C@@H]1CN2CCC1CC2)N1CCc2ccccc2[C@H]1c1ccc(Cl)cc1 [Compound 1082] | 5.80 |  |  |
| COc1ccc([C@H]2c3ccccc3CCN2C(=O)N[C@@H]2CN3CCC2CC3)cn1 [Compound 1083] | 5.59 |  |  |
| COc1ccc([C@@H]2c3ccccc3CCN2C(=O)N[C@@H]2CN3CCC2CC3)cn1 [Compound 1084] | < 5.50 |  |  |
| O=C(N[C@@H]1CN2CCC1CC2)N1CCc2ccccc2[C@@H]1c1cccnc1 [Compound 1085] | 5.75 |  |  |
| O=C(N[C@@H]1CN2CCC1CC2)N1CCc2ccccc2[C@H]1c1cccnc1 [Compound 1086] | 5.50 |  |  |
| CC(C)Oc1ccc([C@H]2c3ccccc3CCN2C(=O)N[C@@H]2CN3CCC2CC3)cc1 [Compound 1087] | < 5.00 |  |  |
| CC(C)Oc1ccc([C@@H]2c3ccccc3CCN2C(=O)N[C@@H]2CN3CCC2CC3)cc1 [Compound 1088] | < 5.00 |  |  |
| CC1([C@H]2c3ccccc3CCN2C(=O)N[C@@H]2CN3CCC2CC3)COC1 [Compound 1089] | < 5.00 |  |  |
| CC1([C@@H]2c3ccccc3CCN2C(=O)N[C@@H]2CN3CCC2CC3)COC1 [Compound 1090] | < 5.00 |  |  |
| O=C(N[C@@H]1CN2CCC1CC2)N1CCc2ccccc2[C@@H]1c1ccc(OCc2ccccc2)cc1 [Compound 1091] | 6.47 |  |  |
| O=C(N[C@@H]1CN2CCC1CC2)N1CCc2ccccc2[C@H]1c1ccc(OCc2ccccc2)cc1 [Compound 1092] | 5.66 |  |  |
| O=C(N[C@@H]1CN2CCC1CC2)N1CCc2ccccc2[C@@H]1c1ccc(O)cc1 [Compound 1093] | < 5.50 |  |  |
| O=C(N[C@@H]1CN2CCC1CC2)N1CCc2ccccc2[C@H]1c1ccc(O)cc1 [Compound 1094] | 5.89 |  |  |
| O=C(N[C@@H]1CN2CCC1CC2)N1CCc2ccccc2[C@@H]1c1ccc(-n2ccnc2)cc1 [Compound 1095] | < 5.00 |  |  |
| O=C(N[C@@H]1CN2CCC1CC2)N1CCc2ccccc2[C@H]1c1ccc(-n2ccnc2)cc1 [Compound 1096] | 6.35 |  |  |
| O=C(N[C@@H]1CN2CCC1CC2)N1CCc2ccccc2[C@@H]1c1ccn2cncc2c1 [Compound 1097] | < 5.00 |  |  |
| O=C(N[C@@H]1CN2CCC1CC2)N1CCc2ccccc2[C@H]1c1ccn2cncc2c1 [Compound 1098] | < 5.00 |  |  |
| O=C(N[C@@H]1CN2CCC1CC2)N1CCc2ccccc2[C@@H]1c1ccc(-n2ccnn2)cc1 [Compound 1099] | < 5.00 |  |  |
| O=C(N[C@@H]1CN2CCC1CC2)N1CCc2ccccc2[C@H]1c1ccc(-n2ccnn2)cc1 [Compound 1100] | < 5.00 |  |  |
| O=C(N[C@@H]1CN2CCC1CC2)N1CCc2ccccc2[C@@H]1c1ccc(-n2cncn2)cc1 [Compound 1101] | 5.41 |  |  |
| O=C(N[C@@H]1CN2CCC1CC2)N1CCc2ccccc2[C@H]1c1ccc(-n2cncn2)cc1 [Compound 1102] | < 5.00 |  |  |

| SMILES | pEC50 [1] | pEC50 [2] | further results |
| --- | --- | --- | --- |
| O=C(N[C@@H]1CN2CCC1CC2)N1CCc2ccccc2[C@@H]1c1ccc(N2CCCC2)cc1 [Compound 1103] | < 5.00 |  |  |
| O=C(N[C@@H]1CN2CCC1CC2)N1CCc2ccccc2[C@H]1c1ccc(N2CCCC2)cc1 [Compound 1104] | 5.29 |  |  |
| O=C(N[C@@H]1CN2CCC1CC2)N1CCc2ccccc2[C@@H]1c1ccn2ccnc2c1 [Compound 1105] | < 5.00 | < 5.00 |  |
| O=C(N[C@@H]1CN2CCC1CC2)N1CCc2ccccc2[C@H]1c1ccn2ccnc2c1 [Compound 1106] | < 5.00 | < 5.00 |  |
| O=C(N[C@@H]1CN2CCC1CC2)N1CCc2ccccc2[C@@H]1c1ccc2cccn2c1 [Compound 1107] | 5.27 |  | pEC50 [4]: 5.43 |
| O=C(N[C@@H]1CN2CCC1CC2)N1CCc2ccccc2[C@@H]1c1ccc2cccn2c1 [Compound 1108] |  |  | pEC50 (assay run v1, read-out: PRGN v1 (EC50, progranulin secretion)): 5.25; pEC50 [4]: < 5.00 |
| O=C(N[C@@H]1CN2CCC1CC2)N1CCc2ccccc2[C@@H]1c1cccc(F)c1 [Compound 1109] | 5.99 | 5.84 |  |
| O=C(N[C@@H]1CN2CCC1CC2)N1CCc2ccccc2[C@H]1c1cccc(F)c1 [Compound 1110] | 5.21 | < 5.00 |  |
| O=C(N[C@@H]1CN2CCC1CC2)N1CCc2ccccc2[C@@H]1c1ccc2cncn2c1 [Compound 1111] | 5.00 | < 5.00 |  |
| O=C(N[C@@H]1CN2CCC1CC2)N1CCc2ccccc2[C@H]1c1ccc2cncn2c1 [Compound 1112] | < 5.00 | < 5.00 |  |
| O=C(N[C@@H]1CN2CCC1CC2)N1CCc2ccccc2[C@@H]1c1ccc(-n2cnnc2)cc1 [Compound 1113] | 5.44 | < 5.00 |  |
| O=C(N[C@@H]1CN2CCC1CC2)N1CCc2ccccc2[C@H]1c1ccc(-n2cnnc2)cc1 [Compound 1114] | < 5.00 | < 5.00 |  |
| O=C(N[C@@H]1CN2CCC1CC2)N1CCc2ccccc2[C@@H]1c1ccc(OC2CC2)cc1 [Compound 1115] | 5.40 | 5.93 |  |
| O=C(N[C@@H]1CN2CCC1CC2)N1CCc2ccccc2[C@H]1c1ccc(OC2CC2)cc1 [Compound 1116] | 5.35 | < 5.00 |  |
| O=C(N[C@@H]1CN2CCC1CC2)N1CCc2ccccc2[C@@H]1c1cnc2nccn2c1 [Compound 1117] | < 5.00 | < 5.00 |  |
| O=C(N[C@@H]1CN2CCC1CC2)N1CCc2ccccc2[C@H]1c1cnc2nccn2c1 [Compound 1118] | < 5.00 | < 5.00 |  |
| O=C1CCCN1c1ccc([C@H]2c3ccccc3CCN2C(=O)N[C@@H]2CN3CCC2CC3)cc1 [Compound 1119] | < 5.00 | < 5.00 |  |
| O=C1CCCN1c1ccc([C@@H]2c3ccccc3CCN2C(=O)N[C@@H]2CN3CCC2CC3)cc1 [Compound 1120] | < 5.00 | < 5.00 |  |
| O=C(N[C@@H]1CN2CCC1CC2)N1CCc2cccnc2[C@@H]1c1ccc(Cl)cc1 [Compound 1121] | < 5.00 | 5.28 |  |
